In patent publication US9657081B2, “Inhibiting peptides derived from triggering receptor expressed on myeloid cells-1 (TREM-1) TREM-like transcript 1 (TLT-1) for treatment of cardiovascular diseases” (INSERM (Institut National de la Sante et de la Recherche …, priority 2013, dated 2017):

Key:
TREM-1 [1] = assay: Rat model of myocardial ischemia-reperfusion, cardiac function by conductance catheter; type: in vivo; design: PRSW: unit not given beside the values; Emax / ESPVR: unit not given here; details: six weeks after ischemia-reperfusion; 3 mg/kg once a day for 5 days
Description: Adult male Wistar rats were subjected to myocardial ischemia-reperfusion and were randomly grouped (n=10) to receive repeated TREM-1- and TLT-1-derived peptides (3 mg/kg in 0.2 mL NaCl 0.9% once a day for 5 days) or scrambled-LR12 (3 mg/kg in 0.2 mL NaCl 0.9% once a day for 5 days). Six weeks after myocardial injury, cardiac function was investigated under anaesthesia by using a conductance catheter. Emax, ESPVR, and PRSW were higher in animals treated with TREM-1- and TLT-1-derived peptides than in control rats. All p<0.02 [controls versus LR12]).
Animals received same surgery than in permanent ischemia, but with reperfusion of ischemic area by release of the LAD ligation after 60 minutes of ischemia. The same protocol as described above was then applied.
Rats were anaesthetized with isoflurane and a 2 F high-fidelity micro-manometer catheter (SPR-407, Millar Institute, Houston, Tex., USA) was inserted into the LV via the right carotid artery. The Millar catheter was connected to a Harvard Data Acquisition System interfaced with a PC with the AcqKnowledge III software (ACQ 3.2).
To investigate the role of TREM-1- and TLT-1-derived peptides in a more relevant model of MI, we performed a transient coronary artery ligation (ischemia-reperfusion model: IR) in rats. After randomisation, animals were then imaged under anaesthesia (micro-TEP) and administered with TREM-1- and TLT-1-derived peptides (3 mg/kg daily for 5 days i.p.) or LR12-scrambled peptide. Imaging was then repeated at 6 weeks before we studied cardiac function by using a conductance catheter (Millar).

TREM-1 [2] = assay: Monkey model of endotoxin (LPS) infusion: blood pressure monitoring; type: in vivo, cynomolgus monkey (Macaca fascicularis)
Description: Male cynomolgus monkeys (Macaca fascicularis) (2.8 to 3.5 kg, 24 months old, Le Tamarinier, La Route Royale, Tamarin, Mauritius) were used. Animals were fasted the day before LPS challenge but with full access to water. CIToxLAB France Ethical Committee (CEC) reviewed and approved all study plans (Nr CEC: 02221).
Vital signs and weight were recorded the day before LPS challenge. The next morning, baseline clinical laboratory samples were collected, and a baseline set of vital signs was recorded. The drug was administered into the cephalic or saphenous vein via a Teflon catheter. Contralateral vein was used for LPS administration.
Monkeys were randomized to receive LR12 or placebo (n=6 per group). An additional group of 4 was constituted to only receive vehicle (NaCl 0.9%) infusion and served as the control group.
At time point 0, a 15 mins intravenous infusion of LR12 or placebo solution was begun, at the rate of 12 mL/h (5 mg/kg, 10 mins, 2 mL), delivered by a calibrated syringe pump (Harvard Apparatus). A continuous infusion was then administered for further 8 hours at the rate of 2 mL/h (1 mg/kg/h, 8 hours, 16 mL). Just before treatment infusion, an intravenous bolus of LPS (10 μg/kg) was administered over the course of a 10 mins period into the contralateral catheter. Animals remained awake in an upright position in a restraint chairs and continued to fast from food for the whole study duration.
Pulse rate, and blood pressure were monitored every 15 mins for 1 hour, then every 30 mins for 7 hours.

TREM-1 [3] = target: T1, TREM-1 (Mus musculus, UniProt Q9JKE2); assay: Mouse myocardial infarction, leukocyte recruitment and mobilization (flow cytometry), plasma chemokines; type: in vivo
T1 construct: endogenous in cells; host or cells: living mice (C57BL, Balb/c, ApoE-/-), in vivo
T1 sequence (Q9JKE2 21-230): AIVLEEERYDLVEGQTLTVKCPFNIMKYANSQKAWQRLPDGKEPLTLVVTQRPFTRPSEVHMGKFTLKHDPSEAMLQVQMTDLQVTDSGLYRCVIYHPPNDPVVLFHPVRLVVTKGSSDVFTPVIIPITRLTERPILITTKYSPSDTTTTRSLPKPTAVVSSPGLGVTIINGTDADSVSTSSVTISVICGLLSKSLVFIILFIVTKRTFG
Description: All procedures were performed on mice male C57BL/C ranging in age from 6-8 weeks. Mice were anesthetized by an intraperitoneal injection of xylazine (60 mg/kg) and fixed in supine position. The trachea was intubated and ventilated (the tidal volume was 200 μl/25 g and the respiratory rate was 120 breaths/min). After a left thoracotomy, the left coronary artery was identified and ligated with an 8-0 prolene surgical suture at 1.0 mm distal from tip of the left auricle. LAD occlusion was confirmed by a change in myocardial color from red to white in the ischemia area (Left ventricle). The chest was closed and the skin was sutured with 6-0 silk. The animals returned to their cage where they are supervised until their complete recovery.
Mice were monitored after surgery for mortality. Mice were randomized to receive or not peptides (daily ip injection for 5 days, 5 mg/kg) and monitored for survival. […] A median sternotomy was performed followed by excision of the heart and dissection of ischemic and non-ischemic areas. ARN extraction and protein extraction were then performed for RT-PCR, WB, immunohistology, and ELISA analysis.
To prepare single-cell suspensions from infarct tissue, hearts were harvested; minced with fine scissors; placed into a cocktail of collagenase I, collagenase XI, DNase I, and hyaluronidase (Sigma-Aldrich); and shaken at 37° C. for 1 h. Cells were then triturated through and centrifuged (15 min, 500 g, 4° C.).
Spleens were removed, triturated in HBSS at 4° C. with the end of a 3-ml syringe, and filtered through 70-μm nylon filters (BD). The cell suspension was centrifuged at 300 g for 10 min at 4° C. Red blood cells were lysed (Red Blood Cells Lysis solution, Miltenyi), and the splenocytes were washed with HBSS and resuspended in HBSS supplemented with 0.2% (wt/vol) BSA. Peripheral blood was drawn via cardiac puncture with citrate solution as anticoagulant, and red blood cells were lysed. Finally, bone-marrow single-cell suspensions were obtained from femurs after flushing them with 1 mL HBSS, filtering through 70-μm nylon filters and centrifugation at 300 g for 10 min at 4° C. Total viable cell numbers were determined from aliquots using a hemacytometer with Trypan blue (BioRad).
Cell suspensions were incubated in a cocktail of mAbs against CD4^+ or CD8^+ T cells (CD4- or CD8-APC, CD3ε-PE, CD45-FITC), B cells (CD19-PE, CD45-FITC), granulocytes (CD45-FITC, Ly-6G-APC), monocytes subsets (CD115-PE, Ly-6C-APC, CD45-FITC), all antibodies from Miltenyi Biotech. Reported cell numbers were calculated as the product of total living cells (total viable leukocytes per ml) and percentage of cells within selected gate, and reported per mg of tissue (heart), per organ (femur and spleen), or per mL (blood). Data were acquired on a FC500 cytometer (Beckman Coulter).

LQEEDAGEYGCM (listed as Homo sapiens) [TLT1-LR12]
ESPVR (TREM-1 [1]): 2.2 ± 0.1
Emax (TREM-1 [1]): 4.8 ± 0.5
PRSW (TREM-1 [1]): 103 ± 5
arterial pressure / hypotension after LPS challenge (TREM-1 [2]; LPS 10 μg/kg): never went hypotensive
Heart rate after LPS injection (TREM-1 [2]; LPS 10 μg/kg, 5 mg/kg then 1 mg/kg/h for 8 hours i.v.): no effects
body temperature increase after LPS, difference between placebo (LR12scr) and LR12-treated animals (TREM-1 [2]; between H1 and H2): not significant
peripheral blood neutrophilia (TREM-1 [3]; 72 hours after MI): not observed
B- and CD8+-lymphocyte infiltration of infarcted myocardium (TREM-1 [3]; mouse MI): reduced
CD4+-cells recruitment to infarcted myocardium (TREM-1 [3]; mouse MI): increased
PMN infiltration of infarcted myocardium (TREM-1 [3]; mouse MI): blocked
